# In US4803199A, “Pharmaceutically useful heterocyclic and carbocyclic acid esters and amides of alkylene bridged piperidines” (priority 1987, dated 1989):
# How the values were obtained:
# [1] = test system: M receptors for serotonin; settings: isolated rabbit vagus nerve; cited from earlier work
# serotonin M receptor = target: T1, serotonin M receptor (Oryctolagus cuniculus, UniProt A0A5F9C9J3); assay: inhibition of the effect of serotonin on the isolated rabbit heart; settings: rabbit heart test, antagonism of serotonin; read-out: pA2 value (converted)
# T1 construct: isolated rabbit heart; from tissue; host or cells: isolated rabbit heart
# T1 sequence (A0A5F9C9J3 1-494): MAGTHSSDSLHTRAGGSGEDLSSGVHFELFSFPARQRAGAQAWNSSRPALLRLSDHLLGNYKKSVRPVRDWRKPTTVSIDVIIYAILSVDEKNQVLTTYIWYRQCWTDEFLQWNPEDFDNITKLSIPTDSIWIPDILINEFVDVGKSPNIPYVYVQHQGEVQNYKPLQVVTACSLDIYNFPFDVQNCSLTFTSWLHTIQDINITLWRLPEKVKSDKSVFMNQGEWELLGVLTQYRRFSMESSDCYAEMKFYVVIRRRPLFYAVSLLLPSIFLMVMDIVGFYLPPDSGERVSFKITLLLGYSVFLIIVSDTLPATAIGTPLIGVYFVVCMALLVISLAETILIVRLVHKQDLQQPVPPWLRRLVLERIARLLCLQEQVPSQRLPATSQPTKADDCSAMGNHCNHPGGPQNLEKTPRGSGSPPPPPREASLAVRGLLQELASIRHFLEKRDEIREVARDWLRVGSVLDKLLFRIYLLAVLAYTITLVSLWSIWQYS
# From the text: The serotonin M receptor antagonist activity is also indicated by inhibiting the effect of serotonin on the isolated rabbit heart according to the method of J. R. Fozard and A. T. Moborak Ali, European Journal of Pharmacology, (1978) 49, 109-112 at concentrations of 10^-11 to 10^-5 M of the compound of the invention. pD'2 or pA2 values may be calculated in the conventional manner.
# M receptors = settings: blister base on forearm of human volunteers; cited from earlier work
SMILES,block of the action of serotonin on C fibre action potential amplitude [1],Kb (serotonin M receptor) [nM],further results
CCN(CC)C(=O)[C@@H]1C=C2c3cccc4[nH]c(Br)c(c34)C[C@H]2N(C)C1 [BOL-148],not blocked,,
COc1cc(N(C)C)ccc1C(=O)O[C@@H]1C[C@H]2CC[C@@H](C1)N2Cc1ccccc1 [Example C-2],,0.01,
CCN(CC)C(=O)[C@@H]1C=C2c3cccc4[nH]cc(c34)C[C@H]2N(C)C1 [lysergic acid diethylamide],,,inhibition of the algesic action of serotonin (M receptors): not inhibited
CC[C@@H](CO)NC(=O)[C@@H]1C=C2c3cccc4c3c(cn4C)C[C@H]2N(C)C1 [methysergide],not blocked,,
CSc1ccc2c(c1)C(N1CCN(C)CC1)Cc1ccccc1S2 (stereo not drawn) [metitepine],not blocked,,
CCN(CC)CCNC(=O)c1cc(Cl)c(N)cc1OC [metoclopramide],,79.4,
